Data: patent publication US20080125496A1, “ANTIMICROBIAL FLAVOR AND ORAL CARE COMPOSITION CONTAINING THE SAME” (TAKASAGO INTERNATIONAL CORPORATION, priority 2001, published 2008)
≈ marks a conversion by molar mass, not a printed value. Read-outs that look alike come from different tables or passages of the source.

Columns and labels:
Format in all cases: cell-based
[1] = system: Actinomyces viscosus JCM 8352; assay: MIC by agar plate dilution method, Av-1; conditions: for MIC: Actinomyces viscosus, read-out: MIC Av-1 (caries-related bacteria)
Procedure: (§1) The minimum inhibitory activities of the antimicrobial flavors of the invention on anaerobic oral bacteria were measured by an agar plate dilution method.
(§2) All the test strains were obtained from Riken (The Institute of Physical and Chemical Research). The names and abbreviations of the strains are shown in Table 1 below (The abbreviations are used in the following description).
(§3) Each test microorganism kept frozen (−80° C.) in glycerol at a concentration of 25% was thawed. A 100 μl portion of the suspension was inoculated into 10 ml of a liquid medium. A Gifu university anaerobic medium (GAM) (Nissui Pharmaceutical Co., Ltd) having added thereto Hemin (Tokyo Kasei) and Menadione (Sigma) was used for Su-1 and Fn-1. Schaedler Broth (BBL) having added thereto Hemin and Menadione was used for the other strains. The culture was anaerobically incubated at 37° C. for 72 hours by using BBL Gas Pack Anaerobic System. After the cultivation, the microbial cell suspension of Su-1 was 10-fold diluted to prepare an inoculum. The cultures of Fn-1 and Pg-1 were used as such as an inoculum. The cultures of Pt-1, Aa-1, and Av-1 were subjected to centrifugation, and the separated microbial cells were suspended in 2 ml of sterilized physiological saline to prepare the respective inoculums.
(§4) An agar medium prepared by adding 2% agar (Difco), Hemin, and Menadione to Trypticase Soy Broth (BBL) was used. A test sample (antimicrobial flavor) was dissolved in ethanol to prepare 2-fold serial dilutions. To 10 ml of the agar medium was added 100 μl of each dilution and stirred well. The agar medium was transferred to a petri dish (diameter: 9 cm) and solidified at room temperature. The solidified agar medium was inoculated with 5 μl of the inoculum by means of a multipoint inoculator (Microplanter MIT-P27, supplied by Sakuma Seisakusho), followed by culturing at 37° C. for 72 hours under anaerobic conditions. The growth of the test microorganism was compared with a blank petri dish (the agar medium to which 100 μl of ethanol had been added). The lowest sample concentration that inhibited growth was taken as MIC (ppm).
(§5) Antimicrobial activities (MIC; ppm) of the aromahygiene base (AHB) prepared in (1) and the antimicrobial flavor compositions prepared in (2) (Examples 2-1 to 2-3) and Comparative Examples 2-1 to 2-3 were measured in the same manner as in Example 1 (2).

[2] = system: Prevotella intermedia JCM 6322; assay: MIC by agar plate dilution method, Pt-1; conditions: for MIC: Prevotella intermedia, read-out: MIC Pt-1 (paradentosis-related bacteria)
Procedure: as §1, §2, §3, §4, §5

[3] = system: Actinomyces naeslundii JCM 8350; assay: MIC by agar plate dilution method, Aa-1; conditions: for MIC: Actinomyces naeslundii, read-out: MIC Aa-1 (caries-related bacteria)
Procedure: as §1, §2, §3, §4, §5

[4] = system: Streptococcus mutans JCM 5175; assay: MIC by agar plate dilution method, Su-1; conditions: for MIC: Streptococcus mutans, read-out: MIC Su-1 (caries-related bacteria)
Procedure: as §1, §2, §3, §4, §5

[5] = system: Porphyromonas gingivalis JCM 8525; assay: MIC by agar plate dilution method, Pg-1; conditions: for MIC: Porphyromonas gingivalis, read-out: MIC Pg-1 (paradentosis-related bacteria; head Fg-1 in Tables 2 and 3)
Procedure: as §1, §2, §3, §4, §5

[6] = system: Fusobacterium nucleatum JCM 6328; assay: MIC by agar plate dilution method, Fn-1; conditions: for MIC: Fusobacterium nucleatum, read-out: MIC Fn-1 (paradentosis-related bacteria)
Procedure: as §1, §2, §3, §4, §5

[7] = agar medium, 37° C., 72 hours, anaerobic conditions
[8] = JCM8352, agar medium, 37° C., 72 hours, anaerobic conditions
[9] = JCM6322, agar medium, 37° C., 72 hours, anaerobic conditions
[10] = JCM8350, agar medium, 37° C., 72 hours, anaerobic conditions
[11] = JCM5175, agar medium, 37° C., 72 hours, anaerobic conditions
[12] = JCM8525, agar medium, 37° C., 72 hours, anaerobic conditions
[13] = JCM6328, agar medium, 37° C., 72 hours, anaerobic conditions

Row | Compound | MIC Av-1 (caries-related bacteria) [1, 7] [ppm] | MIC Aa-1 (caries-related bacteria) [3, 7] [ppm] | MIC Su-1 (caries-related bacteria) [4, 7] [ppm] | MIC Pg-1 (paradentosis-related bacteria; head Fg-1 in Tables 2 and 3) [5, 7] [ppm] | MIC Fn-1 (paradentosis-related bacteria) [6, 7] [ppm] | MIC [1, 8] [µg/mL] | MIC [3, 10] [µg/mL] | MIC [4, 11] [µg/mL] | MIC [5, 12] [µg/mL] | MIC [6, 13] [µg/mL] | further results
1 | CC(C)=CCC/C(C)=C/CCC(C)CCO (stereo not drawn) [Dihydrofarnesol] | 62.5 | 31.3 | 31.3 | 7.8 | 31.3 |  |  |  |  |  | MIC Pt-1 (paradentosis-related bacteria) [2, 7]: 7.8 ppm
2 | CCCCCCCCC=CCC=O [3-Dodecenal] |  |  |  |  |  | 500 (≈ 2740 µM) | 500 (≈ 2740 µM) | 1000 (≈ 5490 µM) | 62.5 (≈ 343 µM) | 250 (≈ 1370 µM) | MIC [2, 9]: 31.3 µg/mL (≈ 172 µM)
3 | CCCCCCCCCC(C)C=O (stereo not drawn) [2-Methyl undecanal] |  |  |  |  |  | 125 (≈ 678 µM) | 125 (≈ 678 µM) | 250 (≈ 1360 µM) | 62.5 (≈ 339 µM) | 125 (≈ 678 µM) | MIC [2, 9]: 62.5 µg/mL (≈ 339 µM)
4 | CCCCCCCCC(C)C=O (stereo not drawn) [2-Methyl decanal] |  |  |  |  |  | 500 (≈ 2940 µM) | 250 (≈ 1470 µM) | 500 (≈ 2940 µM) | 62.5 (≈ 367 µM) | 500 (≈ 2940 µM) | MIC [2, 9]: 125 µg/mL (≈ 734 µM)
5 | O=C1CCCCCCCCCCCCCC1 [Cyclopentadecanone] |  |  |  |  |  |  |  |  |  |  | MIC ([1]; JCM8352, 72 h): > 1000 µg/mL; MIC ([2]; JCM6322, 72 h): < 62.5 µg/mL; MIC ([3]; JCM8350, 72 h): > 1000 µg/mL; MIC ([4]; JCM5175, 72 h): > 1000 µg/mL; MIC ([5]; JCM8525, 72 h): < 62.5 µg/mL; MIC ([6]; JCM6328, 72 h): > 1000 µg/mL
6 | Isocamphylcyclohexanol | 31.3 | 31.3 | 31.3 | 3.9 | 31.3 |  |  |  |  |  | MIC Pt-1 (paradentosis-related bacteria) [2, 7]: 3.9 ppm
7 | CC(=O)C1=C(C)[C@@H]2C[C@@]3(C1)[C@H](C)CC[C@H]3C2(C)C [Acetyl cedrene] | 31.3 | 31.3 | 250 | 15.6 | 500 |  |  |  |  |  | 
8 | CCCc1ccc(O)c(OC)c1 [Dihydroeugenol] | 500 | 500 | 1000 | 62.5 | 500 |  |  |  |  |  | MIC Pt-1 (paradentosis-related bacteria) [2, 7]: 62.5 ppm
9 | O=C1CCCCCCCCCCCCCCO1 [Cyclopentadecanolide] | >1000 | >1000 | >1000 | <62.5 | >1000 |  |  |  |  |  | MIC Pt-1 (paradentosis-related bacteria) [2, 7]: <62.5 ppm
10 | O=CCc1ccccc1 [Phenylacetaldehyde] |  |  |  |  |  | 250 (≈ 2080 µM) | 500 (≈ 4160 µM) | > 1000 |  | 1000 (≈ 8320 µM) | MIC [2, 9]: 15.6 µg/mL (≈ 130 µM); MIC ([5]; JCM8525, 72 h): 15.6 µg/mL (≈ 130 µM)
11 | C=C(C)[C@@H]1CC=C(CO)CC1 [Perilla alcohol] |  |  |  |  |  | 500 (≈ 3280 µM) | 250 (≈ 1640 µM) | 500 (≈ 3280 µM) | 125 (≈ 821 µM) | 500 (≈ 3280 µM) | 
12 | C=C(C)[C@@H]1CCC2=CC(=O)C[C@@H](C)[C@]2(C)C1 [Nootkatone] |  |  |  |  |  | 62.5 (≈ 286 µM) | 62.5 (≈ 286 µM) | 1000 (≈ 4580 µM) | 7.8 (≈ 35.7 µM) | 500 (≈ 2290 µM) | 
13 | CCCCCCCC/C=C/C=O [Trans-2-undecenal] |  |  |  |  |  | 125 (≈ 743 µM) | 125 (≈ 743 µM) | 250 (≈ 1490 µM) |  | 1000 (≈ 5940 µM) | 
14 | CC1CCC(C(C)C)C(OCC(O)CO)C1 (stereo not drawn) [3-Menthoxypropane-1,2-diol] |  |  |  |  |  | 62.5 (≈ 271 µM) | 500 (≈ 2170 µM) | 1000 (≈ 4340 µM) | 250 (≈ 1090 µM) | 1000 (≈ 4340 µM) | 
